# Results reported in patent US4230712A, “7-Methyl-8β-lower alkyl or 7-methyl-8-lower alkyl B/C cis or trans morphinan-6-one compounds and therapeutic method of treating pain employing them” (Miles Laboratories, Inc., priority 1978, dated 1980).
# Entries after “also recorded” stand apart in the source; their conditions may differ. Where a name gives a salt, the structure may show the parent alone.
# Assays:
# [1] = test system: mice; experiment: acetic acid mouse writhing test (analgesic effect, s.c.); assay type: in vivo, male CD-1 mice; conditions: for analgesic activity: in words; for ED50: sc, mouse acetic acid writhing, s.c., dose reducing the number of writhes by 50%, IA @ dose = inactive at that dose, read-out: ED50; for duration of action: footnote ** to the ED50 value; for analgesic potency relative to TR-5222: more potent than TR-5222 by a factor
# Method: (A) Analgesic effects upon mice (acetic acid writhing test).
# TEST A. ACETIC ACID MOUSE WRITHING TEST
# The analgesic effects of test compounds were determined in mice by use of the acetic acid writhing test described by B. J. R. Whittle, Brit. J. Pharmacol., 22:246 (1964). In this test at least three groups of five male CD-1 mice (18-22 g) each were given subcutaneous doses of the test drug dissolved in either distilled water or distilled water acidified with HCl depending on the solubility of the compound. In all cases, 0.4 milliliter of a 0.5% V/V acetic acid in distilled water solution was administered intraperitoneally 15 minutes post drug. The number of writhes in a 20 min. interval beginning 5 minutes after the acetic acid injection were determined and compared with the number of writhes in control groups which had received only acetic acid.
# Percent inhibition of writhing was calculated as: [formula]
# The ED50 dose, i.e., the dose required to reduce the number of writhes by 50%, was determined graphically from a plot of % inhibition as a probit versus log dose. Confidence limits of 95% were calculated on the basis of those results falling in the range 16-84% inhibition. See Litchfield, J. T. and Wilcoxon, F., J. Pharmacol. Exp. Ther., 96, 99-113, (1949).
# [2] = test system: rats; experiment: narcotic antagonist activity, modified rat tail flick test against morphine; assay type: in vivo, male albino Wistar rats; parameters: AD50: unit not given here; conditions: for narcotic antagonist activity / analgesic (agonist)/narcotic antagonist activity profile: in words; for AD50: rat tail flick, dose inhibiting the morphine (ED80 dose s.c.) effect by 50%, IA @ dose = inactive at that dose; for narcotic antagonist potency relative to TR-5222: more potent than TR-5222 by a factor
# Method: (B) Narcotic antagonist activity in rats (modified rat tail flick test).
# TEST B. EVALUATION OF NARCOTIC ANTAGONIST ACTIVITY
# The narcotic antagonist effects of test compounds were determined by a modification of the rat tail flick procedure of Harris and Pierson (J. Pharmacol. Exp. Ther. 143:141 [1964]).
# Male albino Wistar rats (100-120 g) were used for this study. A rat's tail is so placed so as to cover a photocell. Heat is applied by a lamp in a reflector with a timer being connected to the lamp and photocell so that the timer goes on when the light is turned on and is turned off when the photocell is uncovered. A rheostat, incorporated into a heating lamp is used to adjust the intensity of the light falling on the tail of the rat such that the rat's control reaction time is from two to four seconds. Animals with a control reaction time outside this range are rejected. The rheostat adjustment is made only if a significant proportion (more than 2 out of every 10 rats) of the reaction times are outside the range of two to four seconds. Groups of five rats were used each time, and two control times were determined at 60 and 30 minutes prior to subcutaneous injection of the drug.
# Thirty minutes after the last control run the test drug was given intraperitoneally. This was followed ten minutes later by an ED80 dose of morphine subcutaneously. The animals were retested at 20 minutes after the morphine injection. Control animals were given vehicle and morphine only. The data were calculated as follows: [formula]
# The data were plotted on log-probit paper and AD50 values, i.e., the dose required to inhibit the morphine effect by 50% within 95% confidence limits, were determined by the method of Litchfield and Wilcoxon.
# [3] = conclusion from Tests A and B, Hydrochloride
SMILES,ED50 [1] [mg/kg],AD50 [2],analgesic (agonist)/narcotic antagonist activity profile ([2]; conclusion from Tests A and B),further results
"COc1ccc2c(c1)[C@]13CCN(CC4CC4)[C@H](C2)[C@@H]1[C@@H](C)CC(=O)C3 [TR-5119, 17-Cyclopropylmethyl-3-Methoxy-8β-Methylmorphinan-6-one]",0.24,1.45,,analgesic activity [1]: good activity; narcotic antagonist activity [2]: good activity
"C[C@H]1CC(=O)C[C@]23CCN(CC4CCC4)[C@H](Cc4ccc(O)cc42)[C@H]13.Cl [TR-5130, 17-Cyclobutylmethyl-3-hydroxy-8β-methylmorphinan-6-one Hydrochloride]",0.11,1.05,mixed agonist/antagonist activity,
"COc1ccc2c(c1)[C@]13CCN(CC4CCC4)[C@H](C2)[C@@H]1[C@@H](C)CC(=O)C3.Cl [TR-5132, 17-Cyclobutylmethyl-3-methoxy-8β-methylmorphinan-6-one Hydrochloride]",0.54,6.4,,analgesic activity [1]: good activity; narcotic antagonist activity [2]: good activity
"COc1ccc2c(c1)[C@]13CCN(CC4CCC4)[C@H](C2)[C@@H]1CCC(=O)C3.Cl [TR-5148, 17-Cyclobutylmethyl-3-methoxymorphinan-6-one Hydrochloride, reference compound]",0.22,IA @ 10,,analgesic activity [1]: potent analgesic; narcotic antagonist activity [2]: does not exhibit activity as a narcotic antagonist
"COc1ccc2c(c1)[C@]13CCN(CC4CC4)[C@H](C2)[C@@H]1CCC(=O)C3 [TR-5152, 17-Cyclopropylmethyl-3-methoxymorphinan-6-one Hydrochloride, reference compound]",0.24,5.4,,
"Cl.O=C1CC[C@H]2[C@H]3Cc4ccc(O)cc4[C@@]2(CCN3CC2CCC2)C1 [TR-5153, 17-Cyclobutylmethyl-3-hydroxymorphinan-6-one Hydrochloride, reference compound]",0.017,IA @ 10,,"analgesic (agonist)/narcotic antagonist activity profile [2, 3]: pure agonist; also recorded: pure analgesic"
"O=C1CC[C@H]2[C@H]3Cc4ccc(O)cc4[C@@]2(CCN3CC2CC2)C1 [TR-5160, 17-Cyclopropylmethyl-3-hydroxy morphinan-6-one, reference compound]",1.02,2.3,,
"COc1ccc2c(c1)[C@]13CCN(CC4CC4)[C@H](C2)[C@@H]1[C@@H](C)[C@H](C)C(=O)C3 [TR-5188, 17-Cyclopropylmethyl-7α,8β-dimethyl-3-methoxy-morphinan-6-oneHydrochloride]",1.03,4.7,mixed analgesic/narcotic antagonist,
"C[C@@H]1[C@H]2[C@H]3Cc4ccc(O)cc4[C@@]2(CCN3CC2CCC2)CC(=O)[C@H]1C [TR-5195, 17-Cyclobutylmethyl-7α,8β-dimethyl-3-hydroxymorphinan-6-one]",0.78,2.0,analgesic and narcotic antagonist activity,
"C[C@@H]1[C@H]2[C@H]3Cc4ccc(O)cc4[C@@]2(CCN3CC2CC2)CC(=O)[C@H]1C [TR-5196, 17-Cyclopropylmethyl-7α,8β-dimethyl-3-hydroxy-morphinan-6-one]",7.8,0.12,,
"CC[C@H]1CC(=O)C[C@]23CCN(CC4CCC4)[C@H](Cc4ccc(O)cc42)[C@H]13.Cl [TR-5200, 17-Cyclobutylmethyl-8β-ethyl-3-hydroxy-morphinan-6-one Hydrochloride]",0.21,0.32,,analgesic activity [1]: potent activity; narcotic antagonist activity [2]: potent activity
"CCC[C@H]1CC(=O)C[C@]23CCN(CC4CCC4)[C@H](Cc4ccc(O)cc42)[C@H]13.Cl [TR-5204, 17-Cyclobutylmethyl-3-hydroxy-8β-n-propylmorphinan-6-one Hydrochloride]",0.43,3.10,mixed analgesic/narcotic antagonist,analgesic potency relative to TR-5223 ([1]; vs TR-5223): substantially more potent; narcotic antagonist potency relative to TR-5223 ([2]; vs TR-5223): substantially more potent
"COc1ccc2c(c1)[C@]13CCN(CC4CC4)[C@H](C2)[C@H]1C[C@@H](C)C(=O)C3 [TR-5205, 17-Cyclopropylmethyl-3-methoxy-7β-methyl-isomorphinan-6-one Hydrochloride]",> 15,1.2,,
"O=C1CC[C@@H]2[C@H]3Cc4ccc(O)cc4[C@@]2(CCN3CC2CC2)C1 [TR-5222, 17-Cyclopropylmethyl-3-hydroxy-isomorphinan-6-one Hydrochloride, reference compound]",3.11,0.78,mixed analgesic and narcotic antagonist activity,duration of action [1]: short acting
"O=C1CC[C@@H]2[C@H]3Cc4ccc(O)cc4[C@@]2(CCN3CC2CCC2)C1 [TR-5223, 17-Cyclobutylmethyl-3-hydroxy-isomorphinan-6-one Hydrochloride, reference compound]",0.94,5.0,,"analgesic potency relative to TR-5200 ([1]; vs TR-5200): significantly less potent; analgesic (agonist)/narcotic antagonist activity profile [2, 3]: mixed agonist/antagonist activity; also recorded: mixed analgesic/narcotic antagonist activity; mixed agonist/antagonist activity relative to TR-5130 ([2]; vs TR-5130, conclusion from Tests A and B): substantially less than that of TR-5130; narcotic antagonist potency relative to TR-5200 ([2]; vs TR-5200): significantly less potent"
"C[C@@H]1C[C@@H]2[C@H]3Cc4ccc(O)cc4[C@@]2(CCN3CC2CC2)CC1=O [TR-5225, 17-Cyclopropylmethyl-3-hydroxy-7β-methyl-isomorphinan-6-one Hydrobromide]",0.72,0.48,,duration of action [1]: short acting; analgesic potency relative to TR-5222 [1]: greater than four; analgesic potency relative to TR-5205 ([1]; vs TR-5205): much more potent; narcotic antagonist potency relative to TR-5222 [2]: approximately 2; narcotic antagonist potency relative to TR-5205 ([2]; vs TR-5205): approximately twice as potent
"COc1ccc2c(c1)[C@]13CCN(CC4CC4)[C@H](C2)[C@H]1[C@H](C)[C@@H](C)C(=O)C3 [TR-5331, 17-Cyclopropylmethyl-7β,8α-dimethyl-3-methoxy-isomorphinan-6-one Hydrochloride]",> 10,> 10,,analgesic activity [1]: essentially inactive; narcotic antagonist activity [2]: essentially inactive
"COc1ccc2c(c1)[C@]13CCN(CC4CCC4)[C@H](C2)[C@H]1[C@H](C)[C@@H](C)C(=O)C3 [TR-5332, 17-Cyclobutylmethyl-7β,8α-dimethyl-3-methoxy-isomorphinan-6-one Hydrochloride]",> 10,> 10,,
"CC[C@@H]1[C@H]2[C@H]3Cc4ccc(O)cc4[C@@]2(CCN3CC2CCC2)CC(=O)[C@H]1C [TR-5333, 17-Cyclobutylmethyl-8β-ethyl-3-hydroxy-7α-methyl-morphinan-6-one]",3.3,1.95,both analgesic and narcotic antagonist activity,
"C[C@H]1[C@@H]2[C@H]3Cc4ccc(O)cc4[C@@]2(CCN3CC2CC2)CC(=O)[C@@H]1C [TR-5343, 17-Cyclopropylmethyl-7β,8α-dimethyl-3-hydroxy-isomorphinan-6-one Hydrobromide]",1.89,0.43,mixed analgesic and narcotic antagonist activity,analgesic potency relative to TR-5222 [1]: approximately two; analgesic potency relative to TR-5196 ([1]; times as potent as geometric isomer TR-5196): approximately 4 times; narcotic antagonist potency relative to TR-5222 [2]: approximately two; narcotic antagonist potency relative to TR-5196 ([2]; vs geometric isomer TR-5196): somewhat less potent
